# Measurements published in patent US12390483B2, “Compounds and methods for treating neurological and cardiovascular conditions” (Astrocyte Pharmaceuticals, Inc., priority 2016, dated 2025).
# “Also recorded” adds a separate entry of the source.
# Tests used:
# [1] = Pharmacokinetics of MRS4322 following intraperitoneal administration of MRS2365 to mice; assay type: in vivo; details: for Plasma Concentration by Subject / Plasma Concentration Mean / Brain Concentration by Subject / Brain Concentration Mean: MRS4322 in mice after MRS2365 0.24 mg/kg i.p.; for Plasma Concentration by Subject / Brain Concentration by Subject: subjects A-C; for Plasma Concentration by Subject / Plasma Concentration Mean: BLQ = below 2.26 ng/mL; for Brain Concentration by Subject / Brain Concentration Mean: BLQ = below 9.40 ng/g
# Experimental: Animals: Female C576BL/6J mice weighing approximately 0.02 Kg were used for this study, supplied by the University of Texas Health Sciences Center (San Antonio, TX). All studies were conducted under approved University of Texas Health Sciences Center IACUC protocols.
# Drug Administration: MRS2365 was solubilized in phosphate-buffered saline and then diluted in phosphate-buffered saline to prepare dosing solution. Final dosing solution concentration of MRS2365 was 100 μM. A 100 μL volume of dosing solution was administered intraperitoneally to each mouse per 20 gram body weight; MRS2365 was administered intraperitoneally at 0.5 μmol/kg or 0.24 mg/kg. Three mice were administered MRS2365 for each sampling timepoint.
# Tissue Sampling: Blood and brain samples were obtained at 0, 0.083, 0.25, 0.5, 1, 2 and 8 hours post-dose. At each timepoint, mice (3/timepoint) were euthanized in a […] chamber. Whole blood was obtained by cardiac puncture into Microtainer tubes containing heparin and immediately centrifuged for preparation of plasma; plasma was stored at −80° C. At each timepoint, whole brain samples were obtained by decapitation, rinsed in ice-cold phosphate-buffered saline and weighed. Brain samples were then immediately flash-frozen in liquid nitrogen and stored at −80° C.
# The following table outlines the LC and MS/MS conditions employed:
# The calibration range for the MRS4322 plasma concentration standard curve was 2.26-241 ng/mL. The calibration range for MRS4322 brain concentrations was 2.35-242 ng/mL.
# For bioanalysis of brain concentrations of MRS4322, brain samples were homogenized in ice-cold phosphate-buffered saline in a 4× dilution. Aliquots of the resulting diluted brain homogenate were treated with acetonitrile and analyzed by LC-MS/MS. Because of the 4× homogenate dilution, the calibration range of the MRS4322 brain standard curve was translated to 9.40-968 ng/gm. In several samples, MRS4322 were detectable but fell below the brain LLOQ of 9.40 ng/gm but were above background; in these cases the final reported brain concentration was extrapolated based on MS peak heights.
# GFAP expression = test: Traumatic brain injury (TBI) in mice, Western blot analysis for GFAP; assay type: in vivo; details: for GFAP expression in brain (Western blot, GFAP/actin): 7 days post-injury, versus untreated TBI
# Experimental: Animals and traumatic brain injury (TBI): TBI was performed with a controlled closed skull injury model as described in […] al. 2012 (J. Neurotrauma 30, 55-66). Following the method described therein, a pneumatic impact device was used to generate a moderate TBI leaving the skull and dura matter intact. To achieve this, C57BL/6 mice were anesthetized with isoflurane (3% induction, 1% maintenance) in 100% oxygen. A body temperature of 37° C. was maintained using a temperature-controlled heated surgical table. A small midline incision was made on the scalp using aseptic surgical techniques. A 5 mm stainless steel disc was positioned on the skull and fixed using superglue on the right parietal bone between bregma and lamda over the somatosensory cortex. The mouse was then positioned on a stage directly under the pneumatic impact tip. […] Scalp incisions were closed using 4-0 nylon braided suture and antibiotic ointment applied to the incision. Mice were placed in a Thermo-Intensive Care Unit (Braintree Scientific model FV-1; 37° C.; 27% 02) and monitored until fully awake and moving freely. […] Western Blot Analysis for GFAP: At selected survival times, mice were anesthetized under isoflurane and sacrificed. The brain was removed and placed on ice for dissection into impacted and non-impacted brain hemispheres. […] The homogenate was transferred to a 2 mL tube and centrifuged at 1000 g for 10 minutes at 4° C. and the supernatant was collected and analyzed. Protein concentration was determined by the BCA assay using a 1:50 dilution. 100 μg of protein was removed as an aliquot for each sample and Laemmli buffer containing β-mercaptoethanol added and the sample placed in a heat block for 3 minutes at 95° C. Samples were loaded on a 12% gel and ran at 80 V for 20 minutes followed by 40 minutes at 130 V. Samples were transferred to nitrocellulose membrane at 100 V for 1 hour. The membrane was blocked with 5% milk in TBS-T for 30 minutes. GFAP (1:1000-Imgenex IMG-5083-A) was added and placed at 4° C. overnight. The membrane was washed with TBS-T three times for 10 minutes. Secondary antibody for GFAP (Donkey anti-rabbit HRP conjugated (ImmunoJackson Laboratories; 711-035-152; 1:20000) was applied at room temperature for 1 hour. The membranes were washed with TBS-T for 15 minutes (3 times) and developed using the Western Lightning Plus-ECL kit (PerkinElmer, Inc.) following manufacturer's directions.
# [2] = TBI mice, approx. 0.5 μmol/kg 30 min post-TBI
Compound,"metabolic fate following intraperitoneal administration to mice ([1]; MRS2365 0.5 μmol/kg i.p., mice)","GFAP expression in brain (Western blot, GFAP/actin) (GFAP expression; [2])",Plasma Concentration by Subject ([1]; 0 h),Plasma Concentration Mean ([1]; 0 h),Brain Concentration by Subject ([1]; 0.083 h),Brain Concentration Mean ([1]; 0.083 h),Brain Concentration by Subject ([1]; 1 h),Brain Concentration Mean ([1]; 1 h),Brain Concentration by Subject ([1]; 2 h),Brain Concentration Mean ([1]; 2 h),Plasma Concentration by Subject ([1]; 8 h),Brain Concentration by Subject ([1]; 8 h),Plasma Concentration Mean ([1]; 8 h),Brain Concentration Mean ([1]; 8 h),"GFAP levels in plasma (Western blot, relative to actin) (GFAP expression; TBI mice, approx. 0.5 μmol/kg 30 min post-TBI, day 7, versus untreated TBI)",efficacy in the mouse TBI model (GFAP expression; summary statement)
CSc1nc(N)c2ncn([C@H]3[C@H](O)[C@H](O)[C@]4(COP(=O)(O)OP(=O)(O)O)C[C@H]34)c2n1 [MRS2365],rapidly and completely metabolized to MRS4322,significantly lower; also recorded: decreased,,,,,,,,,,,,,,
CSc1nc(N)c2ncn([C@H]3[C@H](O)[C@H](O)[C@]4(CO)C[C@H]34)c2n1 [MRS4322],,significantly lower; also recorded: decreased,BLQ,BLQ,BLQ,BLQ,BLQ,BLQ,BLQ,BLQ,BLQ,BLQ,BLQ,BLQ,significantly reduced,significant efficacy
